Molecules are shown by their SMILES.

This assay has as its system ‘CLL17’ rice plant. Kind of assay: Herbicide tolerance and susceptibility of 'CLL17' rice plants. It counts as in vivo. Particulars: at levels of the herbicide that would normally inhibit the growth of a rice plant. From the text:
The variety is resistant to imidazolinone herbicides. The herbicide resistance (or herbicide tolerance) profile is essentially the same as that of ‘CL161’ through common ancestry. The herbicide tolerance allows ‘CLL17,’ its hybrids, and derived varieties to be used with certain imidazolinone or sulfonylurea herbicides, including among others the imidazolinone herbicides imazethapyr and imazamox, for the selective control of weeds including red rice. See generally U.S. Pat. No. 6,943,280.
Among others, the herbicide tolerance and susceptibility characteristics of ‘CLL17’ include or are expected to include the following.
For the compound `CCOC(=O)c1ccccc1S(=O)(=O)NC(=O)Nc1nc(Cl)cc(OC)n1` [chlorimuron ethyl], the “herbicide tolerance / susceptibility of ‘CLL17’ (resistant or sensitive)” value is on record as “sensitive”.
To `COCc1cnc(C2=NC(C)(C(C)C)C(=O)N2)c(C(=O)O)c1` (stereo not drawn) [imazamox] belongs “resistant”.
To `Cc1cnc(C2=NC(=O)C(C)(C(C)C)N2)c(C(=O)O)c1` (stereo not drawn) [imazapic] belongs “resistant”; to `CC(C)C1(C)N=C(c2ncccc2C(=O)O)NC1=O` (stereo not drawn) [imazapyr], “resistant”; to `CC(C)C1(C)N=C(c2nc3ccccc3cc2C(=O)O)NC1=O` (stereo not drawn) [imazaquin], “resistant”.
In the case of `CCc1cnc(C2=NC(C)(C(C)C)C(=O)N2)c(C(=O)O)c1` (stereo not drawn) [imazethapyr] it was “resistant”.
Regarding `COC(=O)c1ccccc1S(=O)(=O)NC(=O)Nc1nc(C)nc(OC)n1` [metsulfuron methyl], the “herbicide tolerance / susceptibility of ‘CLL17’ (resistant or sensitive)” value is reported as “resistant”.
To `COc1cc(OC)nc(NC(=O)NS(=O)(=O)c2ncccc2C(=O)N(C)C)n1` [nicosulfuron] belongs “resistant”; to `CCS(=O)(=O)c1cccnc1S(=O)(=O)NC(=O)Nc1nc(OC)cc(OC)n1` [rimsulfuron], “sensitive”; to `COC(=O)c1ccccc1S(=O)(=O)NC(=O)Nc1nc(C)cc(C)n1` [sulfometuron methyl], “sensitive”.
In the case of `COC(=O)c1sccc1S(=O)(=O)NC(=O)Nc1nc(C)nc(OC)n1` [thifensulfuron methyl] it was “resistant”; in that of `COC(=O)c1ccccc1S(=O)(=O)NC(=O)N(C)c1nc(C)nc(OC)n1` [tribenuron methyl], “resistant”.

Values taken from US12376538B2, “Rice cultivar designated ‘CLL17’” (Board of Supervisors of Louisiana State University and …, priority 2020, dated 2025).
